# ChEMBL document CHEMBL5053497, “Azaphilones from an Endophytic Penicillium sp. Prevent Neuronal Cell Death via Inhibition of MAPKs and Reduction of Bax/Bcl-2 Ratio” (2021)
# Active and inactive are the calls of the source. The rule behind the calls is not given here.
# Legend:
# [1] = test system: HT-22; assay: Neuroprotective activity against glutamate-induced cytotoxicity in mouse HT-22 cells assessed as cell viability at 25 uM incubated for 24 hrs in presence of glutamate by EZ-CyTox reagent based analysis relative to control; type: functional; conditions: read-out: Activity
# [2] = test system: HT-22; assay: Neuroprotective activity in mouse HT-22 cells assessed as reduction in glutamate-induced intracellular Ca2+ level at 50 uM incubated for 8 hrs in presence of glutamate by Fluo-4AM staining based microscopic imaging analysis; type: functional, cell-based
# [3] = test system: HT-22; assay: Neuroprotective activity against glutamate-induced cytotoxicity in mouse HT-22 cells assessed as cell viability at 25 to 50 uM incubated for 24 hrs in presence of glutamate by EZ-CyTox reagent based analysis (reference value: 50 %); type: functional; conditions: dose 25-50 µM
# [4] = test system: HT-22; assay: Neuroprotective activity in mouse HT-22 cells assessed as inhibition of glutamate-induced nuclear condensation at 25 uM incubated for 12 hrs in presence of glutamate by Hoechst 33342 staining based fluorescence microscopic analysis; type: functional, cell-based
# [5] = test system: HT-22; assay: Neuroprotective activity in mouse HT-22 cells assessed as reduction in glutamate-induced intracellular Ca2+ level at 25 uM incubated for 8 hrs in presence of glutamate by Fluo-4AM staining based microscopic imaging analysis; type: functional, cell-based
# [6] = test system: HT-22; assay: Inhibition of glutamate-induced MAPK activation in mouse HT-22 cells assessed as reduction in JNK phosphorylation at 10 to 20 uM incubated for 11 hrs in presence of glutamate by Western blot analysis; type: cell-based; conditions: dose 10-20 µM
# [7] = test system: HT-22; assay: Neuroprotective activity in mouse HT-22 cells assessed as inhibition of glutamate-induced nuclear condensation at 10 to 20 uM incubated for 12 hrs in presence of glutamate by Hoechst 33342 staining based fluorescence microscopic analysis; type: functional, cell-based; conditions: dose 10-20 µM
# [8] = test system: HT-22; assay: Neuroprotective activity in mouse HT-22 cells assessed as reduction in glutamate-induced intracellular Ca2+ level at 10 to 20 uM incubated for 8 hrs in presence of glutamate by Fluo-4AM staining based microscopic imaging analysis; type: functional, cell-based; conditions: dose 10-20 µM
# [9] = test system: HT-22; assay: Inhibition of glutamate-induced MAPK activation in mouse HT-22 cells assessed as reduction in p38 phosphorylation at 10 to 20 uM incubated for 11 hrs in presence of glutamate by Western blot analysis; type: cell-based; conditions: dose 10-20 µM
# [10] = test system: HT-22; assay: Neuroprotective activity against glutamate-induced cell death in mouse HT-22 cells assessed as reduction in Bax/Bcl2 ratio at 10 to 20 uM incubated for 11 hrs in presence of glutamate by Western blot analysis; type: functional, cell-based; conditions: dose 10-20 µM
# [11] = test system: HT-22; assay: Neuroprotective activity against glutamate-induced cytotoxicity in mouse HT-22 cells assessed as cell viability at 12.5 uM incubated for 24 hrs in presence of glutamate by EZ-CyTox reagent based analysis; type: functional
# [12] = test system: HT-22; assay: Inhibition of glutamate-induced MAPK activation in mouse HT-22 cells assessed as reduction in ERK phosphorylation at 10 to 20 uM incubated for 11 hrs in presence of glutamate by Western blot analysis; type: cell-based; conditions: dose 10-20 µM
# [13] = test system: HT-22; assay: Neuroprotective activity against glutamate-induced cytotoxicity in mouse HT-22 cells assessed as cell viability at 50 to 100 uM incubated for 24 hrs in presence of glutamate by EZ-CyTox reagent based analysis; type: functional; conditions: dose 50-100 µM
smiles,measurement,setting,value
CC[C@H](C)/C=C(C)/C=C/C1=CC2=C(Cl)C(=O)[C@](C)(OC)C(=O)C2=CN1CCO,viability at 25 µM,[1],100%
same,Activity,[2],Active
same,Activity,[3],80%
same,inhibition,[4],Active
CC[C@@H](/C=C(C)/C=C/C1=CC2=CC(=O)[C@](C)(O)[C@H](O)[C@H]2CO1)CO,Activity,[5],inactive
same,Activity,[3],80%
same,inhibition,[4],inactive
CC[C@H](C)/C=C(C)/C=C/C1=CC2=C(Cl)C(=O)[C@](C)(OC(C)=O)C(=O)C2=CN1 [SCLEROTIORAMINE],inhibition,[6],Active
same,inhibition,[7],Active
same,viability at 25 µM,[1],100%
same,Activity,[8],Active
same,inhibition,[9],Active
same,Activity,[10],Active
same,Activity,[11],Active
same,inhibition,[12],Active
CC[C@H](C)/C=C(C)/C=C/C1=CC2=C(Cl)C(=O)[C@](C)(OC(C)=O)C(=O)C2=CN1CCO,viability at 25 µM,[1],100%
same,Activity,[8],Active
same,Activity,[3],80%
same,inhibition,[4],Active
CC[C@H](C)/C=C(C)/C=C/C1=CC2=CC(=O)[C@](C)(O)[C@H](O)[C@H]2CO1,Activity,[5],inactive
same,Activity,[13],Active
same,inhibition,[4],inactive
CC(/C=C/C1=CC2=C(Cl)C(=O)[C@](C)(O)[C@H](O)[C@@H]2CO1)=C\[C@@H](C)CCO,Activity,[5],inactive
same,Activity,[3],80%
same,inhibition,[4],inactive
CC[C@H](C)/C=C(C)/C=C/C1=CC2=C(Cl)C(=O)[C@](C)(O)[C@H](O)C2=CO1,Activity,[13],Active
